Like-named read-outs stand apart in the source and are kept apart here.
Legend:
bovine trypsin = target: T1, bovine trypsin (Bos taurus, UniProt P00760); assay: Proteinase inhibition assay, bovine trypsin; format: biochemical
T1 sequence (P00760 24-246): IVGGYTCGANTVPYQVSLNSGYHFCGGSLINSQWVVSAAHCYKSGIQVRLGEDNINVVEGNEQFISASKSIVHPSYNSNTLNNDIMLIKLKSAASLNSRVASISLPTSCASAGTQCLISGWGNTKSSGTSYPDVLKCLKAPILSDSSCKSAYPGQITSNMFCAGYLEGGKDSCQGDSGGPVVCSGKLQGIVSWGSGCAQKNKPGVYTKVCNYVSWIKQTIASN
Procedure: (§1) Assays of human α-thrombin and bovine trypsin were performed at 25° C. in 0.05M TRIS buffer pH 7.4, 0.15M NaCl, 0.1% PEG. Trypsin assays also contained 1 mM CaCl2.
In assays wherein rates of hydrolysis of a p-nitroanilide (pna) substrate were determined, a Thermomax 96-well plate reader was used was used to measure (at 405 nm) the time dependent appearance of p-nitroaniline. sar-PR-pna was used to assay human α-thrombin (Km =125 μM) and bovine trypsin (Km =125 μM). "Sar" is the three letter abbreviation for the amino acid sarcosine (N-methylglycine). p-Nitroanilide substrate concentration was determined from measurements of absorbance at 342 nm using an extinction coefficient of 8270 cm^-1 M^-1.
(§2) Times required to achieve equilibration between enzyme and inhibitor were determined in control experiments. Initial velocities of product formation in the absence (Vo) or presence of inhibitor (Vi) were measured. Assuming competitive inhibition, and that unity is negligible compared Km /[S], [S]/e, and [I]/e (where [S], [I], and e respectively represent the total concentrations, of substrate, inhibitor and enzyme), the equilibrium constant (Ki) for dissociation of the inhibitor from the enzyme can be obtained from the dependence of Vo /Vi on [I] shown in equation 1.
Using the assays described above, the following additional embodiments of the invention were evaluated and shown to be selective for inhibiting thrombin. The constants were determined at pH 7.4 in buffer containing 0.05M Tris, 0.15M NaCl, 0.1% PEG-8000 at room temperature.

Factor Xa (fXa) = target: T2, Factor Xa (fXa) (Homo sapiens, UniProt P00742); assay: Chromogenic assay, Factor Xa; format: biochemical; settings: Table 3
T2 construct: Factor Xa (fXa), plasma kallikrein (p-Kal), plasmin (Pl)
T2 sequence (P00742 235-488 limits assumed): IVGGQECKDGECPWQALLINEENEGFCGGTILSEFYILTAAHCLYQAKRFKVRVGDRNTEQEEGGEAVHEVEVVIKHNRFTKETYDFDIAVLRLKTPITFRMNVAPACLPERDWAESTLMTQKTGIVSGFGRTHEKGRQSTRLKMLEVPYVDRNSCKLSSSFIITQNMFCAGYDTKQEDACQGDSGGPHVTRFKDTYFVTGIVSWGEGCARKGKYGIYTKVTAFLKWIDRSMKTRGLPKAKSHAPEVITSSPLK
T2 sequence (P00742 41-179 limits assumed): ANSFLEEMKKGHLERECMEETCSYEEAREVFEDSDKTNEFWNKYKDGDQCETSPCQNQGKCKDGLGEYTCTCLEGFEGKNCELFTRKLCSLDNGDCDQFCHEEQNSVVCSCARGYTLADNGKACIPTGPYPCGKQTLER

[1] = target: T3, plasma kallikrein (p-Kal) (Homo sapiens, UniProt P03952); assay: Chromogenic assay, plasma kallikrein; format: biochemical; settings: Table 3
T3 construct: plasma kallikrein (p-Kal)
T3 sequence (P03952 391-638 limits assumed, species assumed): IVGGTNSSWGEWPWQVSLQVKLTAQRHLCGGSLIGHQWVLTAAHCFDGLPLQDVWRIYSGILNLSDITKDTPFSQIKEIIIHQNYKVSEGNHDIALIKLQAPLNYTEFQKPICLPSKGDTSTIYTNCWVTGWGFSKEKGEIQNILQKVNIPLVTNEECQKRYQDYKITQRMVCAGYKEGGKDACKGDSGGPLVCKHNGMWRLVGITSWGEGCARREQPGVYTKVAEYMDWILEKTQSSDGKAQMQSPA
T3 sequence (P03952 20-390 limits assumed, species assumed): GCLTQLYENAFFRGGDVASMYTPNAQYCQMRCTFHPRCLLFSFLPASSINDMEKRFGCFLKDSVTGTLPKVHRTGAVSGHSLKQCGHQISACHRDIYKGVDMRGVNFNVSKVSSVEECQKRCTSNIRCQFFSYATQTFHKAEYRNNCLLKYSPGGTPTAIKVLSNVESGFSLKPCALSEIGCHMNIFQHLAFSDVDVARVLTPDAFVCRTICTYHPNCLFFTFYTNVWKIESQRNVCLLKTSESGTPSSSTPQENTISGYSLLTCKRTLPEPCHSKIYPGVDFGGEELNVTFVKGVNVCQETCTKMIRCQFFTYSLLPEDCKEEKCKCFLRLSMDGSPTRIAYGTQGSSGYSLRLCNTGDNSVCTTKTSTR

plasmin (Pl) = plasmin (Pl) (Homo sapiens, UniProt P00747); assay: Chromogenic assay, plasmin; format: biochemical; settings: Table 3
Chain of plasmin (Pl) (P00747 581-810 limits assumed, species assumed): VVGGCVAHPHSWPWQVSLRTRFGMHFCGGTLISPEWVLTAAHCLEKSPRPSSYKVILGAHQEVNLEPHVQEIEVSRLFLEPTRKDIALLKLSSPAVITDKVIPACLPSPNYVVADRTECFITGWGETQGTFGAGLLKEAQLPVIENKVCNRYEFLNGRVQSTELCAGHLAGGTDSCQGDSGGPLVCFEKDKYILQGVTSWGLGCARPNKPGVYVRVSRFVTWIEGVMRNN
Chain of plasmin (Pl) (P00747 97-580 limits assumed, species assumed): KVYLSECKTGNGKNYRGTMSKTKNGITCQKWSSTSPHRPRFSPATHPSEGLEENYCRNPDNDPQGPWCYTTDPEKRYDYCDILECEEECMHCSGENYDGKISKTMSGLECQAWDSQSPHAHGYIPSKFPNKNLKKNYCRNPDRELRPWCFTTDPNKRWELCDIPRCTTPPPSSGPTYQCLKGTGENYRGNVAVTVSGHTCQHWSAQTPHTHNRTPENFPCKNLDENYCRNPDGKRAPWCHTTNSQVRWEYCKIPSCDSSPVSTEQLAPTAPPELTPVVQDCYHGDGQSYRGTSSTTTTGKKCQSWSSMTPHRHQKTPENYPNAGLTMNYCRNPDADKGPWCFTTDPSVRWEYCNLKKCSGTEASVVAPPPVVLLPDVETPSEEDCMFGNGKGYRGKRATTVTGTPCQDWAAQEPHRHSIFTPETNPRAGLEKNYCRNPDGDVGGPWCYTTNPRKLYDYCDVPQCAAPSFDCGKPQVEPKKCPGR

[2] = target: tissue plasminogen activator (t-PA) (Homo sapiens, UniProt P00750); assay: Chromogenic assay, tissue plasminogen activator; format: biochemical; settings: Table 3, read-out: Ki (nM) tPA
Chain of tissue plasminogen activator (t-PA) (P00750 36-562, species assumed): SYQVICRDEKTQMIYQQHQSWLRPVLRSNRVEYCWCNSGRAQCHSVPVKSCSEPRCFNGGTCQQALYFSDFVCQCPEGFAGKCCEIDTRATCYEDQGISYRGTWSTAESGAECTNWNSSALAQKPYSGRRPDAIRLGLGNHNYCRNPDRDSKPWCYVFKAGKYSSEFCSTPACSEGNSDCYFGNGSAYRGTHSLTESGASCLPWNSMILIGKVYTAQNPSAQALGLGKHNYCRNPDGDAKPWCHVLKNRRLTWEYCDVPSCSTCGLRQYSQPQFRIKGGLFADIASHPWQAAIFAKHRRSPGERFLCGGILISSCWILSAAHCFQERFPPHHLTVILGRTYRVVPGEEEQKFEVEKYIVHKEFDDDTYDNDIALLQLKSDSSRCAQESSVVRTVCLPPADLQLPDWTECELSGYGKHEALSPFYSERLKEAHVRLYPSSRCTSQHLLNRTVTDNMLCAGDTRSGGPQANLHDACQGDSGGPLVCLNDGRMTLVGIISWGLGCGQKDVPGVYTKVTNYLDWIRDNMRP

[3] = target: activated protein C (APC) (Homo sapiens, UniProt P04070); assay: Chromogenic assay, activated protein C; format: biochemical; settings: Table 3
Chain of activated protein C (APC) (P04070 212-461 limits assumed): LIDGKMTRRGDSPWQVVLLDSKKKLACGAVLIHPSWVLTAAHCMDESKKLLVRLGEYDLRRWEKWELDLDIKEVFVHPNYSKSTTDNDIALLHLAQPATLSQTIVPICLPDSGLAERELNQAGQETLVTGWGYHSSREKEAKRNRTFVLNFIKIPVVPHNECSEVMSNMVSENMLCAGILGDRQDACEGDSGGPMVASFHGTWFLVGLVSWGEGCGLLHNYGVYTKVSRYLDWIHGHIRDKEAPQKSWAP
Chain of activated protein C (APC) (P04070 43-197 limits assumed): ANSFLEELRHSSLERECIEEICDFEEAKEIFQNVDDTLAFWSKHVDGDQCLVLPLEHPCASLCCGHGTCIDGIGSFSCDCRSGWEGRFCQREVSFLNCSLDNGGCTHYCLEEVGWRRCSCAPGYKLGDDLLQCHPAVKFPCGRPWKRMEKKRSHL

[4] = system: FeCl3 induced arterial thrombosis in rats; assay: Rat ferric chloride assay; format: in vivo
Procedure: In the assay, male Sprague-Dawley rats (body weights 200-350 grams) were anesthetized with dial-urethane solution (0.1 ml/100 gm body weight i.p.), and a lateral tail vein was cannulated with a 23 gauge needle connected to a 12 inch length of PE50 robing. The robing was attached to a 3-way valve by a tubing adapter. Saline (control) or test compound, as appropriate, was administered via the tail vein catheter. A tracheostomy was performed with a 0.75 inch length of PE205 tubing. The right carotid artery was exposed and a 1.3 mm diameter Doppler flow probe was placed on the vessel. Body temperature was maintained at 37° C. using a heat lamp.
Rats (8-10/group) were randomized to continuous intravenous infusions of saline or test compound administered via the tail vein at a rate of 0.028 ml/min. Treatment infusions were initiated 60 min before the placement of a 3 mm square piece of Whatman No. 1 filter paper saturated with 35% FeCl3 onto the exposed carotid artery distal to the flow probe. […] Time to occlusion was defined as the time from application of FeCl3 to thrombotic occlusion of the vessel.

[5] = Oral bioavailability in rats; format: in vivo; settings: rat, oral (gastric lavage), plasma
Procedure: (§3) Concentration was determined in animal plasma after oral (gastric lavage) administration.
Rats were anesthetized and instrumented with indwelling left jugular vein and left carotid artery catheters for test agent administration and for serial blood sampling, respectively. One day after instrumentation, blood samples were obtained before saline or inhibitor administration and at increasing time points after the oral administration.
(§4) Thrombin inhibitor concentrations in plasma were determined by the inactivation of a known amount of thrombin (where [thrombin]>>Ki of inhibitor) from an aliquot of acid-neutralized rat plasma. 0.25 ml of rat platelet poor plasma was mixed with 25 μl of 3M perchloric acid. The sample was centrifuged (14,000×g for 10 minutes) and 0.2 ml of the supernatant was neutralized with 0.43 ml of 1M TrisB 0.15M NaCl/0.1% PEG 8000 pH 7.8. 50-100 μl of acid-neutralized rat plasma was mixed with 50-100 μl of 0.03-3 μM thrombin. After equilibration, 5-10 μl of 5 mM Sar-Pro-Arg-pna (for <0.1 μM thrombin) or Spectrozyme PCa (for >0.1 μM thrombin) was added. The observed inhibited velocity was compared to inhibited velocities from a standard curve generated from rat plasma containing known amounts of inhibitor treated in an identical manner. The table below summarizes the results from these studies.

[6] = Oral bioavailability in dogs; format: in vivo; settings: dog, oral (gastric lavage), plasma
Procedure: as §3
In dogs, the test agent was administered intravenously as a bolus or orally by gastric lavage. For intravenous studies, the sterile agent is dissolved in sterile 0.9% saline and administered via 19 g butterfly, usually via the saphenous vein. For oral studies, the sterile agent was dissolved in sterile water and administered via a feeding tube. Blood samples (5 cc each) were collected with a plastic syringe containing 3.8% sodium citrate via venipuncture (at sites other than that of drug administration) for drug plasma levels and thrombin clotting time assay. Dogs were allowed to recover 14 days before being used again in a similar protocol.
as §4, with “The observed inhibited velocity was compared to inhibited velocities from a standard curve generated from rat plasma containing known amounts of inhibitor treated in an identical manner. The table below summarizes the results from these studies.” left out

[7] = Oral bioavailability in rhesus monkeys; format: in vivo, rhesus monkey; settings: oral (nasogastric tube), plasma
Procedure: as §3
In monkeys, the test agent was administered intravenously as a bolus or orally by pediatric nasogastric tube. For intravenous studies, the sterile agent was dissolved in sterile 0.9% saline and administered via 21 g butterfly, usually via the brachial vein. For oral studies, the sterile agent was dissolved in sterile water and administered via a nasogastric tube. Blood samples (4 cc each) were collected with a plastic syringe containing 3.8% sodium citrate via venipuncture (at sites other than that of drug administration) for drug plasma levels and thrombin clotting time assay. The monkeys were given water ad lib. Monkeys were allowed to recover 14 days before being used again in a similar protocol.
Thrombin inhibitor concentrations in plasma were determined by the inactivation of a known amount of thrombin (where [thrombin]>>Ki of inhibitor) from an aliquot of acid-neutralized rat plasma. 0.25 ml of rat platelet poor plasma was mixed with 25 μl of 3M perchloric acid. The sample was centrifuged (14,000×g for 10 minutes) and 0.2 ml of the supernatant was neutralized with 0.43 ml of 1M TrisB 0.15M NaCl/0.1% PEG 8000 pH 7.8. 50-100 μl of acid-neutralized rat plasma was mixed with 50-100 μl of 0.03-3 μM thrombin. […]

human α-thrombin = human α-thrombin (Homo sapiens, UniProt P00734); assay: Proteinase inhibition assay, human α-thrombin; format: biochemical
Procedure: as §1
"Sar" is the three letter abbreviation for the amino acid sarcosine (N-methylglycine). p-Nitroanilide substrate concentration was determined from measurements of absorbance at 342 nm using an extinction coefficient of 8270 cm^-1 M^-1.
Concentrations of stock solutions of Z-GPR-afc were determined from measurements of absorbance at 380 nm (extinction coefficient=12600 cm^-1 M^-1) of the 7-amino-4-trifluoromethyl coumarin produced upon complete hydrolysis of an aliquot of the stock solution by thrombin.
as §2
The constants were determined at pH 7.4 in buffer containing 0.05M Tris, 0.15M NaCl, 0.1% PEG-8000 at room temperature.

[8] = Table 2, pH 7.4, 0.05M Tris, 0.15M NaCl, 0.1% PEG-8000, room temperature, read-out: Ki (nM) Thrombin
[9] = Table 2, pH 7.4, 0.05M Tris, 0.15M NaCl, 0.1% PEG-8000, room temperature, read-out: Ki (nM) Trypsin

| Structure (SMILES) | Ki (Factor Xa (fXa)) [nM] | Ki [1] [nM] | Ki (plasmin (Pl)) [nM] | Ki [2] [nM] | Ki [3] [nM] | Ki (human α-thrombin; [8]) [nM] | Ki (bovine trypsin; [9]) [µM] | other results |
| --- | --- | --- | --- | --- | --- | --- | --- | --- |
| CNC(=O)C(=O)C(NC(=O)C1CCCN1C(=O)C(Cc1ccccc1)NC)C1CCC(N)CC1 [4-4, H-NMe-D.-Phe-Pro-t-L-Acg.PSI.[COCO]--NHMe] | > 10000 | > 10000 | > 10000 | > 10000 | > 10000 |  |  | Ki (bovine trypsin; Table 1, 25° C., 0.05M TRIS pH 7.4, 0.15M NaCl, 0.1% PEG, 1 mM CaCl2, listed as drawing 22, read-out: Ki (μM) Trypsin): 1.15 µM; Incidence of occlusion ([4]; 1 μg/kg/min i.v. infusion): 3/4; Minutes to occulsion of those occluding ([4]; 1 μg/kg/min i.v. infusion): 21 min; Incidence of occlusion ([4]; 5 μg/kg/min i.v. infusion): 2/4; Minutes to occulsion of those occluding ([4]; 5 μg/kg/min i.v. infusion): 18 to 20 min; Incidence of occlusion ([4]; 10 μg/kg/min i.v. infusion): 0/4; % bioavailable [5]: 5%; % bioavailable [6]: 8%; % bioavailable [7]: 5% |
| CNC(=O)C(=O)C(NC(=O)C1CCCN1C(=O)CCc1ccc(Cl)c(Cl)c1)C1CCC(N)CC1 (stereo not shown) [xi] | > 10000 | > 10000 | > 10000 | > 10000 | > 10000 | 0.4 | > 10 |  |
| CNC(=O)C(=O)C(NC(=O)C1CCCN1C(=O)C(Cc1ccccc1)NC)C1CCC(N)CC1 [4-3, H-NMe-D-Phe-Pro-t-D-Acg.PSI.[COCO]--NHMe] |  |  |  |  |  |  |  | Ki (bovine trypsin; Table 1, 25° C., 0.05M TRIS pH 7.4, 0.15M NaCl, 0.1% PEG, 1 mM CaCl2, listed as drawing 21, read-out: Ki (μM) Trypsin): 7 µM |
| CNC(Cc1ccccc1)C(=O)N1CCCC1C(=O)NC(C(=O)C(=O)NC1CC1)C1CCC(N)CC1 (mixture of isomers) [xvii] | > 10000 | 9000 | > 10000 | > 10000 | > 10000 | 0.07 | 0.12 |  |

Now from value to compound, other results behind:

| Ki (Factor Xa (fXa)) [nM] | Ki [1] [nM] | Ki (plasmin (Pl)) [nM] | Ki [2] [nM] | Ki [3] [nM] | Ki (human α-thrombin; [8]) [nM] | Ki (bovine trypsin; [9]) [µM] | Structure (SMILES) | other results |
| --- | --- | --- | --- | --- | --- | --- | --- | --- |
| > 10000 | > 10000 | > 10000 | > 10000 | > 10000 | 0.03 | 2 | CNC(=O)C(=O)C(NC(=O)C1CCCN1C(=O)CC(c1ccccc1)c1ccccc1)C1CCC(N)CC1 (mixture of isomers) [xv] |  |
| > 10000 | 7000 | > 10000 | > 10000 | > 10000 |  |  | CNC(Cc1ccccc1)C(=O)N1CCCC1C(=O)NC(C(=O)C(=O)O)C1CCC(N)CC1 (racemic) [3-3, H-NMe-D-Phe-Pro-t-DL-AcgY[COCO]--OH] | Ki (human α-thrombin; Table 1, 25° C., 0.05M TRIS pH 7.4, 0.15M NaCl, 0.1% PEG, read-out: Ki (μM) Thrombin): 0.05 nM; Ratio (human α-thrombin; Table 1, Ki trypsin / Ki thrombin): 1000; Ki (bovine trypsin; Table 1, 25° C., 0.05M TRIS pH 7.4, 0.15M NaCl, 0.1% PEG, 1 mM CaCl2, read-out: Ki (μM) Trypsin): 0.051 µM; Incidence of occlusion ([4]; 10 μg/kg/min i.v. infusion): 3/4; Minutes to occulsion of those occluding ([4]; 10 μg/kg/min i.v. infusion): 22 to 24 min; Incidence of occlusion ([4]; 20 μg/kg/min i.v. infusion): 0/4; Incidence of occlusion ([4]; 50 μg/kg/min i.v. infusion): 0/4 |
| 2300 | > 10000 | > 10000 | > 10000 | > 10000 | 0.025 | 0.66 | CNC(=O)C(=O)C(NC(=O)C1CCCN1C(=O)C(Cc1ccc(Cl)c(Cl)c1)NC)C1CCC(N)CC1 (stereo not shown) [xii] |  |

From patent US5672582A, “Thrombin inhibitors” (Merck & Co., Inc., priority 1994, dated 1997)
